Like-named read-outs stand apart in the source and are kept apart here.
Experiments:
[1] = system: TDH derived from Cupriavidus necator NBRC 102504 (SEQ ID NO: 1) (CnTDH); assay: Substrate specificity of TDH, standard assay; format: biochemical; details: for Activity of the present enzyme on the substrate (in words): substrate 10 mM
Experimental: L-threonine oxidation activity was determined by measuring coenzyme NAD^+ reduction at 30° C. and 340 nm. The reaction composition consisted of a total volume of 1 mL and contained L-threonine (final concentration 10 mM), NAD^+ (final concentration 2.5 mM), and glycine-KCl—KOH buffer (100 mM, pH 10.0). The measurement of activity began with the addition of the enzyme. One unit (U) of enzymatic activity was defined as the amount of enzyme producing 1 μmol of NADH per minute under standard conditions.
TDH was examined using substrates in the form of various L-amino acids, amino alcohols, and alcohols. […]

[2] = system: CsTDH: TDH from Clostridium sticklandii; details: substrate specificity; L-threonine = 100; cited from earlier work
[3] = target: EcTDH: TDH from Escherichia coli K-12 (Escherichia coli, UniProt P07913); details: cited from earlier work
EcTDH: TDH from Escherichia coli K-12, sequence (P07913 whole entry): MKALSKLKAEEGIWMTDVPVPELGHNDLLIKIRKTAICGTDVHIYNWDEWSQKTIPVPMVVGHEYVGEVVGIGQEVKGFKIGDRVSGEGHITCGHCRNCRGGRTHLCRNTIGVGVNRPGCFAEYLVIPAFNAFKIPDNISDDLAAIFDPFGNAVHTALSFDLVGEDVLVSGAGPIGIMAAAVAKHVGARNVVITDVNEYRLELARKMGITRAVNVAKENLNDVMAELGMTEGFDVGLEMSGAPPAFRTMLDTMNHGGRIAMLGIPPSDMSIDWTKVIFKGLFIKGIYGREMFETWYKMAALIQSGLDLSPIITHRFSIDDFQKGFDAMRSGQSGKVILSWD

[4] = system: GdTDH: TDH from chicken liver (Gallus domesticus); details: substrate specificity; L-threonine = 100; cited from earlier work
[5] = system: CyTDH: TDH from Cytophaga sp. KUC-1; details: substrate specificity; L-threonine = 100; cited from earlier work
[6] = target: PfTDH: TDH from Pyrococcus furiosus (Pyrococcus furiosus, UniProt Q8U259); details: cited from earlier work
PfTDH: TDH from Pyrococcus furiosus, sequence (Q8U259 whole entry): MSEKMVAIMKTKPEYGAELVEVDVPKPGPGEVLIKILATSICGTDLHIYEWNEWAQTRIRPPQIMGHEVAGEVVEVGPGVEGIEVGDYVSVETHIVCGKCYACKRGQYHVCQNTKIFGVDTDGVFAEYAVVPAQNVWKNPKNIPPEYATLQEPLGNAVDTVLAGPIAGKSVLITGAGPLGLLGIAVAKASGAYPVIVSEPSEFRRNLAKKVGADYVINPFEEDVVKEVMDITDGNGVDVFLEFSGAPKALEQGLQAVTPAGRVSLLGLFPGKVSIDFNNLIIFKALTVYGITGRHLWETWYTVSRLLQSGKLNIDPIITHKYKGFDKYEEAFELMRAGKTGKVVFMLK

TkTDH = TkTDH (Thermococcus kodakarensis, UniProt Q5JI69); details: substrate specificity; L-threonine = 100; cited from earlier work
TkTDH, sequence (Q5JI69 whole entry): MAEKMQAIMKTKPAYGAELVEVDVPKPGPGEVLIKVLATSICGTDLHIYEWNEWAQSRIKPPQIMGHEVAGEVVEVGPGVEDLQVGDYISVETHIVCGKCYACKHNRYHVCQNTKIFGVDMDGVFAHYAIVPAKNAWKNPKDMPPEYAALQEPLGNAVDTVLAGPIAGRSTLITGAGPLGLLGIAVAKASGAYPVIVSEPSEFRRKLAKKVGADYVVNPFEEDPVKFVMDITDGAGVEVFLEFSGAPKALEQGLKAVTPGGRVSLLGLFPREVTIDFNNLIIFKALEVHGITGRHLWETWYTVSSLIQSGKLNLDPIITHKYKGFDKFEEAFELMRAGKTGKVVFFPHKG

[7] = system: StTDH: TDH from Streptomyces sp. 139; details: substrate specificity; L-threonine = 100; cited from earlier work
[8] = system: AgTDH: TDH from Arthrobacter globiformis; details: substrate specificity; L-threonine = 100; cited from earlier work
[9] = substrate concentration 10 mM, standard assay conditions, L-threonine = 100
[10] = substrate specificity, L-threonine = 100

Row | Compound | Relative activity (%) CnTDH [1, 9] [%] | Relative activity (%) CsTDH [2] [%] | Relative activity (%) EcTDH [3, 10] [%] | Relative activity (%) CyTDH [5] [%] | Relative activity (%) PfTDH [6, 10] [%] | further results
1 | C[C@H](O)[C@H](N)C(=O)O (racemic) [DL-allothreonine] | 0 | 0 | 95.0 |  |  | Relative activity (%) GdTDH [4]: 0%
2 | NC(C(=O)O)C(O)c1ccccc1 (racemic) [DL-threo-3-phenylserine] | 0 | 0 | 3 | 0 |  | 
3 | CCC(O)C(N)C(=O)O (racemic) [DL-α-amino-β-hydroxyvaleric acid] |  | 20 | 71 | 31 |  | Relative activity (%) GdTDH [4]: 0%
4 | C[C@H](O)[C@@H](N)C(=O)O [D-threonine] | 0 | 0 | 63.7 | 0 | 5 | Activity of the present enzyme on the substrate (in words) ([1]; standard assay conditions): no activity was observed; Relative activity (%) GdTDH [4]: 0%
5 | N[C@@H](CC(=O)O)C(=O)O [L-aspartic acid] | 0 | 0 |  | 0 | 0 | 
6 | N[C@@H](CCC(=O)O)C(=O)O [L-glutamic acid] | 0 | 0 |  | 0 | 0 | 
7 | NC(=O)CC[C@H](N)C(=O)O [L-glutamine] | 0 | 0 |  | 0 | 0 | 
8 | N[C@@H](Cc1c[nH]cn1)C(=O)O [L-histidine] | 0 | 0 |  | 0 | 0 | 
9 | CC[C@H](C)[C@H](N)C(=O)O [L-isoleucine] | 0 | 0 |  | 0 | 0 | 
10 | NCCCC[C@H](N)C(=O)O [L-lysine] | 0 | 0 |  | 0 | 0 | 
11 | CSCC[C@H](N)C(=O)O [L-methionine] | 0 | 0 |  | 0 |  | Relative activity (%) PfTDH [6]: 0%
12 | N[C@@H](Cc1ccccc1)C(=O)O [L-phenylalanine] | 0 | 0 |  | 0 | 0 | 
13 | O=C(O)[C@@H]1CCCN1 [L-proline] | 0 | 0 |  | 0 |  | Relative activity (%) PfTDH [6]: 0%
14 | N[C@@H](CO)C(=O)O [L-serine] | 0 | 0 | 4.0 | 0 | 15 | Relative activity (%) CnTDH ([1]; substrate 100 mM): 0%; Relative activity (%) TkTDH (TkTDH): 13%; Relative activity (%) GdTDH [4]: 0%
15 | C[C@@H](O)[C@H](N)C(N)=O [L-threonine amide] | 0 | 0 |  |  |  | Relative activity (%) EcTDH [3]: 98%
16 | C[C@@H](O)[C@H](N)C(=O)O [L-threonine hydroxide] | 0 | 0 | 25 |  |  | 
17 | COC(=O)[C@@H](N)[C@@H](C)O [L-threonine methyl ester] | 0 | 0 | 27 |  |  | 
18 | C[C@@H](O)[C@H](N)C(=O)O [L-threonine] | 100 | 100 | 100.0 | 100 | 100 | Activity of the present enzyme on the substrate (in words) ([1]; standard assay conditions): exhibited the activity for only L-threonine; Relative activity (%) StTDH [7]: 100%; Relative activity (%) AgTDH [8]: 100%; Relative activity (%) TkTDH (TkTDH): 100%; Relative activity (%) GdTDH [4]: 100%
19 | N[C@@H](Cc1c[nH]c2ccccc12)C(=O)O [L-tryptophan] | 0 | 0 |  | 0 | 0 | 
20 | N[C@@H](Cc1ccc(O)cc1)C(=O)O [L-tyrosine] | 0 | 0 |  | 0 | 0 | 
21 | CC(C)[C@H](N)C(=O)O [L-valine] | 0 | 0 |  | 0 | 0 | 

Reference: patent US8785147B2, “L-threonine analysis method and L-threonine dehydrogenase” (Toyama Prefecture, priority 2010, dated 2014)
